Test results from BindingDB's records for doi:10.1021/jm7013887 (Abbott Laboratories, 2008).

Assays:
[1] = target: T1, Diacylglycerol O-acyltransferase 1 (Homo sapiens, UniProt O75907); assay: In Vitro FlashPlate Assay; settings: pH 7.5; 22 °C
T1 sequence (O75907 whole entry): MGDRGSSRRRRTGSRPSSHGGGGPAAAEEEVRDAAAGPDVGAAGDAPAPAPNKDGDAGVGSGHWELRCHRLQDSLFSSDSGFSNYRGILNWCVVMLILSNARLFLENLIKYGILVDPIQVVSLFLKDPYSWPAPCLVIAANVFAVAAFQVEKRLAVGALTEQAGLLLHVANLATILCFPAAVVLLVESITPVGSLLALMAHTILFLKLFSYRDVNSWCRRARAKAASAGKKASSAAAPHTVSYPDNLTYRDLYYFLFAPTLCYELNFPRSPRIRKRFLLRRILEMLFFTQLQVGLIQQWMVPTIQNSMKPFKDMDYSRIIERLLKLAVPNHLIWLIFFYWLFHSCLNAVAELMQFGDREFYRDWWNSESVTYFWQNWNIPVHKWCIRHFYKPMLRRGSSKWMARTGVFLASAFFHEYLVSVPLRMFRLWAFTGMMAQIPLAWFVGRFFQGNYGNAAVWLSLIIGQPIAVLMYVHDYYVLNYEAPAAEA
Experimental: (§1) DGAT-1 activity was characterized by catalyzing the transfer of the radiolabeled decanoyl group onto the syn-3 position of didecanoyl glycerol. The resultant radiolabeled tridecanoyl glycerol (tricaprin) preferentially binds to the hydrophobic coating on the phospholipid FlashPlate, and radioactivity was measured in the TopCount Plate Reader. Various concentrations (0.0001 uM to 10 uM) of test compounds were added to individual wells prior to the addition of membranes.

[2] = target: T2, Diacylglycerol O-acyltransferase 1 (Mus musculus, UniProt Q9Z2A7); assay: In Vitro FlashPlate Assay; settings: pH 7.5; 22 °C
T2 sequence (Q9Z2A7 whole entry): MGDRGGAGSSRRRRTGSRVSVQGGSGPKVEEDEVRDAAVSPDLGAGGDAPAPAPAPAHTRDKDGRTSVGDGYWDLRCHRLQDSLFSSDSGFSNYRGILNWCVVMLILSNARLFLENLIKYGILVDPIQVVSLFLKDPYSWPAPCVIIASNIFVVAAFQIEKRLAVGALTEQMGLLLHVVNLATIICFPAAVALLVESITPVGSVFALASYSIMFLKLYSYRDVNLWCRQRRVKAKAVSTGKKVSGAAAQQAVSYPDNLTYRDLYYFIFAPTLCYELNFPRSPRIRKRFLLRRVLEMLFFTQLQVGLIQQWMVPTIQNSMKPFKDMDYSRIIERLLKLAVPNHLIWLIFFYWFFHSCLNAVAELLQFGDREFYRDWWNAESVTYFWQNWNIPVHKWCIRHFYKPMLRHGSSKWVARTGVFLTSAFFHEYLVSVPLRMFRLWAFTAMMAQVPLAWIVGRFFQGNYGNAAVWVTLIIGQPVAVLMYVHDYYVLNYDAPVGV
Experimental: as §1

IC50 [1]: 0.009 µM
IC50 [2]: 0.028 µM
SMILES: COc1ccc(NC(=O)Nc2ccc(-c3ccc(C(=O)[C@@H]4CCC[C@H]4C(=O)O)cc3)cc2)cc1 [(1R,2R)-2-{[4-(4-{[(4-methoxyphenyl)carbamoyl]amino}phenyl)phenyl]carbonyl}cyclopentane-1-carboxylic acid]
